From ChEMBL document CHEMBL1201862, “PubChem BioAssay data set” (2004)
Active and inactive are the calls of the source.

Experiments:
[1] = biological target: Sphingosine 1-phosphate receptor 2 (Homo sapiens, UniProt O95136); experiment: Dose Response Cell Based Assay for Antagonists of the S1P2 Receptor. [Related pubchem assays: 856, 736 ]; assay type: functional
[2] = system: Streptococcus sp. 'group A'; experiment: Streptococcus pyogenes SK(-)GAS viability under kanamycin – luminescence, BacTiterGlo, confirmation, counter-screen for streptokinase expression inhibitor project, dose response (AID 1900); assay type: functional, organism-based
BJ [3] = experiment: BJ-TERT fibroblast viability loss – cell-based, RAS-independent, luminescence, dose response (AID 1933); assay type: functional; conditions: Homo sapiens
BJ [4] = experiment: cells; assay type: functional, cell-based; conditions: Homo sapiens
[5] = viability of PTEN-deleted HCT116 cells – cell-based, HCT116 PTEN knockout, dose response (AID 1047); assay type: functional;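 further: HCT116 colon tumor cells with PTEN knocked out; cells exposed to compound for 60 hours before readout; potency for loss of cell viability measured by luminescence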
[6] = viability of HCT116 lacking mutant beta-catenin – cell-based, human colon tumor, dose response (AID 1045); assay type: functional;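 further: HCT116 colon tumor cells with beta catenin knocked out; cells exposed to compound for 60 hours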
BJ [7] = experiment: BJ-TERT-LT-ST fibroblast viability loss – cell-based, RAS-independent, luminescence, dose response (AID 1935); assay type: functional; conditions: Homo sapiens;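 further: BJ fibroblasts immortalized with TERT plus LT and ST oncogenes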
[8] = DRD fibroblast viability loss – cell-based, non-viral oncogenic, luminescence, dose response (AID 1934); assay type: functional; conditions: Homo sapiens
Streptococcus = experiment: GAS UMAA2166 growth inhibition – luminescence, BacTiterGlo, counter-screen for streptokinase expression inhibitor project, dose response (AID 1915); assay type: functional, organism-based;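 further: potency for reduction of bacterial viability or growth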
BJ [9] = experiment: growth inhibition of engineered Ras-driven BJ cells – cell-based, alamar blue fluorescence, cherrypicked samples, dose response (AID 2631); assay type: functional; conditions: Homo sapiens;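 further: confirmatory dose-response assay in RAS-dependent BJ fibroblasts engineered with TERT, LT and ST, with cytotoxicity read by fluorescence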
[10] = biological target: T1, Corticotropin-releasing factor receptor 2/Corticotropin-releasing factor-binding protein (Homo sapiens, UniProt P24387+Q13324); experiment: activators of CRF receptor 2 with binding protein – uHTS hits, confirmation (AID 602473); assay type: functional; conditions: read-out: EC50_Mean
T1 sequence (Q13324 whole entry): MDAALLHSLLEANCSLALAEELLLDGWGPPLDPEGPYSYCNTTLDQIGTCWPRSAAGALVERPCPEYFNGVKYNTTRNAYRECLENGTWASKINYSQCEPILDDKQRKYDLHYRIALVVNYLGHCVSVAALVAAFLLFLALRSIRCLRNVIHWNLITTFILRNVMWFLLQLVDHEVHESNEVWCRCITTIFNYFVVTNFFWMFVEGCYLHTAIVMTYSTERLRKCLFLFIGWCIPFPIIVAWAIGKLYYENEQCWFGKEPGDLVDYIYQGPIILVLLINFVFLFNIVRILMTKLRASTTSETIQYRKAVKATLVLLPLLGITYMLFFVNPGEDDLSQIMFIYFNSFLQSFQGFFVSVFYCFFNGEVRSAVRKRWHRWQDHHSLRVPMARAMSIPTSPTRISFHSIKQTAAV
T1 sequence (P24387 whole entry): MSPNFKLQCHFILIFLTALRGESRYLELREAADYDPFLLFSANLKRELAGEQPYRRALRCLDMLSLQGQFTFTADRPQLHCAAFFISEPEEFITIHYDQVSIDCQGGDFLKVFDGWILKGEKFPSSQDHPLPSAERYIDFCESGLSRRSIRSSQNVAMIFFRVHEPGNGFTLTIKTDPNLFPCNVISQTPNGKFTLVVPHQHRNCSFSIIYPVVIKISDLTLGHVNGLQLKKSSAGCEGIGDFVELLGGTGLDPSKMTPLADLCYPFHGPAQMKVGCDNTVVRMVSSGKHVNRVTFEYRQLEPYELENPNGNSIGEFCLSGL

[11] = biological target: T2, Histone-lysine N-methyltransferase NSD2 (Homo sapiens, UniProt O96028); assay type: biochemical
T2 sequence (O96028 whole entry): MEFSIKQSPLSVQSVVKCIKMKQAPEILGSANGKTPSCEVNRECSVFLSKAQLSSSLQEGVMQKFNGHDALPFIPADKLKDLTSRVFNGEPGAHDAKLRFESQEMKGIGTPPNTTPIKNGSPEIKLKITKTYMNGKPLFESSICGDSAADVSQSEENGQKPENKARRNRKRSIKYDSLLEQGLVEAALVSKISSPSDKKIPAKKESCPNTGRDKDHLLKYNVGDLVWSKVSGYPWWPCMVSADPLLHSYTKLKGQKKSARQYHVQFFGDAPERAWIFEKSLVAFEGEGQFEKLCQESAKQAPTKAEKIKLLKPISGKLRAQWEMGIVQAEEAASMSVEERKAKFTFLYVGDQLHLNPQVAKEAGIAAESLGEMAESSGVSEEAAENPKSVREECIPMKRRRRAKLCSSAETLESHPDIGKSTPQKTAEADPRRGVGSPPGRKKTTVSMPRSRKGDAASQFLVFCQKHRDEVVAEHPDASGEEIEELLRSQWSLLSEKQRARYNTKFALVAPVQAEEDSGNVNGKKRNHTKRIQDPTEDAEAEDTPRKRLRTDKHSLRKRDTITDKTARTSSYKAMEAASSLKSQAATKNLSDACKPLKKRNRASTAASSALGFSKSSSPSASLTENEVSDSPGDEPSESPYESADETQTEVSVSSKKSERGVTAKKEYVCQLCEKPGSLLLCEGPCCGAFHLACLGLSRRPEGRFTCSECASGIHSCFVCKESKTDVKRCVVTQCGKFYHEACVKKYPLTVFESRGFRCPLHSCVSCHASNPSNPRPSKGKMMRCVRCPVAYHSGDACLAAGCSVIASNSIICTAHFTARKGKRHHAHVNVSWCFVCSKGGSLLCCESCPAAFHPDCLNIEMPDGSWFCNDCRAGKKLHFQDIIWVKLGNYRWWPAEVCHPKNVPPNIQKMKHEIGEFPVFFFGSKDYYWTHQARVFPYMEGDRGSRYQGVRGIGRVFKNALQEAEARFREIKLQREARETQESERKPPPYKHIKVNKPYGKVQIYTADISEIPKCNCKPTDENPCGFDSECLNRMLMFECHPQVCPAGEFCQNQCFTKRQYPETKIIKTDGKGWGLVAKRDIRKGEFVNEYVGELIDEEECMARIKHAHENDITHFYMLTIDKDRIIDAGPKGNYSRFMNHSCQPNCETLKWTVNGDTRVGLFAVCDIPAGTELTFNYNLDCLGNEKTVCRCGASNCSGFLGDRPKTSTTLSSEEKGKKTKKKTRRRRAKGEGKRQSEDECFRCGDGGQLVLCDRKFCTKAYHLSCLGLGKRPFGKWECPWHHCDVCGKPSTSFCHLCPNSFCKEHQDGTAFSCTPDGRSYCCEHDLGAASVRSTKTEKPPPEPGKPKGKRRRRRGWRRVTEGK

Mucolipin-3 = biological target: T3, Mucolipin-3 (Homo sapiens, UniProt Q8TDD5); experiment: Dose response cell-based high-throughput screening assay for agonists of the transient receptor potential channel ML3 (TRPML3). [Related pubchem assays: 1526, 1424, 1448 ]; assay type: functional
T3 sequence (Q8TDD5 whole entry): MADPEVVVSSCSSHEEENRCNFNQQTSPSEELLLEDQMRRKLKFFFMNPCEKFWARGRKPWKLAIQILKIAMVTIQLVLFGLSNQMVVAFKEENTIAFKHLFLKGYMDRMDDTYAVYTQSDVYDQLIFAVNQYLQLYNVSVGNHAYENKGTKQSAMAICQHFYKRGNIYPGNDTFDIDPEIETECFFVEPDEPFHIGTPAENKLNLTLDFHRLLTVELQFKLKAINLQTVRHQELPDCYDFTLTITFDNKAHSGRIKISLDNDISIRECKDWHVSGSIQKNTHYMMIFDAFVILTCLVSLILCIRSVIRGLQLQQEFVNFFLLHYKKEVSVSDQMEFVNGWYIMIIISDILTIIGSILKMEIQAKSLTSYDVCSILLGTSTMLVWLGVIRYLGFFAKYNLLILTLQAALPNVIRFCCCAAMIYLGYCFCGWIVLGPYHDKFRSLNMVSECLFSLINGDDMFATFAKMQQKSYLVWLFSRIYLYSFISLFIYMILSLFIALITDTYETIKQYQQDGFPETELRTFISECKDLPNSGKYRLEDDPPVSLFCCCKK

Ion channel NompC = Ion channel NompC (Danio rerio, UniProt Q7T1G6); experiment: Fluorescence counterscreen assay for TRPML3 agonists: dose response cell-based high-throughput screening assay to identify agonists of the transient receptor potential channel N1 (TRPN1). [Related pubchem assays: 1526, 1424, 1448 ]; assay type: functional
Bcl-2-related protein A1 [12] = biological target: T4, Bcl-2-related protein A1 (Mus musculus, UniProt Q07440); experiment: small-molecule antagonists of Bfl-1/BH3 interaction – biochemical, TR-FRET, mouse Bfl-1, confirmation (AID 621);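 further: TR-FRET binding of GST-Bfl-1 to FITC-labelled Bid peptide via terbium antibody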
T4 sequence (Q07440 whole entry): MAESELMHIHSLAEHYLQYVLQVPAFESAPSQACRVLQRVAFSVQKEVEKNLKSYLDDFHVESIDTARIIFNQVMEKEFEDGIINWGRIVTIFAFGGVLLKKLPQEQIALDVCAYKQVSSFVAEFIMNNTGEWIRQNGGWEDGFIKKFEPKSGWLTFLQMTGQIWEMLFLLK

Bcl-2-related protein A1 [13] = biological target: T4, Bcl-2-related protein A1; experiment: Bfl-1 binding inhibitors, SAR follow-up, biochemical, fluorescence polarization (AID 1070)
[14] = biological target: T5, Short transient receptor potential channel 4 (Mus musculus, UniProt Q9QUQ5); experiment: block of DAMGO-driven TRPC4 calcium entry – cell-based, HEK293 TRPC4/mu-opioid, Fluo-4 calcium, dose response (AID 434942); assay type: functional;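 further: potency of inhibitors blocking the TRPC4 calcium response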
T5 sequence (Q9QUQ5 whole entry): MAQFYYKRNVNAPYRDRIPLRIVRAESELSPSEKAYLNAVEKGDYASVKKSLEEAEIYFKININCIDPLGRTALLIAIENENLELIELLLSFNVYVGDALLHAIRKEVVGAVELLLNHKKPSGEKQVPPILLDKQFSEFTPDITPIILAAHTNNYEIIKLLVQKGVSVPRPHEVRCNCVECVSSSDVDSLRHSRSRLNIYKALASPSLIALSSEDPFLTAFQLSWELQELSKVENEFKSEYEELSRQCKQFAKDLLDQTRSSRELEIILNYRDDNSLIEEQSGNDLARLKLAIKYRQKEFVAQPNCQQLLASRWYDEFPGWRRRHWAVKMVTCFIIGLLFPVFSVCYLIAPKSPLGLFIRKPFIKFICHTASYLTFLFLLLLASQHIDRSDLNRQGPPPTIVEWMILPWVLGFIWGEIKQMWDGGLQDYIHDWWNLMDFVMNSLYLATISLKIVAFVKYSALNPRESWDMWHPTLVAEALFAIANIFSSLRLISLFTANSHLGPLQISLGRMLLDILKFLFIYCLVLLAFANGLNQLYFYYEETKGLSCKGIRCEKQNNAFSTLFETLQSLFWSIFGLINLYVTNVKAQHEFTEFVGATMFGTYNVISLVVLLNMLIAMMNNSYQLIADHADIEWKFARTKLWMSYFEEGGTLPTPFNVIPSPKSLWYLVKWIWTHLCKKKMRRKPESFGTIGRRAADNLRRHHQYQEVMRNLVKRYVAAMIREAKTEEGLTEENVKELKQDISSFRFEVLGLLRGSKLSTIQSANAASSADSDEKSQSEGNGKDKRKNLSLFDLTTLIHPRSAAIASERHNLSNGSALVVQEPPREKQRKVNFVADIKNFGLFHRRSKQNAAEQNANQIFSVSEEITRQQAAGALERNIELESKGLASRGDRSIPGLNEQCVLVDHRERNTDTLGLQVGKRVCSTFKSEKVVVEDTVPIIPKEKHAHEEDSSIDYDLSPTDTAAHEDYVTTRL

Chain of Ion channel NompC (Q7T1G6 whole entry): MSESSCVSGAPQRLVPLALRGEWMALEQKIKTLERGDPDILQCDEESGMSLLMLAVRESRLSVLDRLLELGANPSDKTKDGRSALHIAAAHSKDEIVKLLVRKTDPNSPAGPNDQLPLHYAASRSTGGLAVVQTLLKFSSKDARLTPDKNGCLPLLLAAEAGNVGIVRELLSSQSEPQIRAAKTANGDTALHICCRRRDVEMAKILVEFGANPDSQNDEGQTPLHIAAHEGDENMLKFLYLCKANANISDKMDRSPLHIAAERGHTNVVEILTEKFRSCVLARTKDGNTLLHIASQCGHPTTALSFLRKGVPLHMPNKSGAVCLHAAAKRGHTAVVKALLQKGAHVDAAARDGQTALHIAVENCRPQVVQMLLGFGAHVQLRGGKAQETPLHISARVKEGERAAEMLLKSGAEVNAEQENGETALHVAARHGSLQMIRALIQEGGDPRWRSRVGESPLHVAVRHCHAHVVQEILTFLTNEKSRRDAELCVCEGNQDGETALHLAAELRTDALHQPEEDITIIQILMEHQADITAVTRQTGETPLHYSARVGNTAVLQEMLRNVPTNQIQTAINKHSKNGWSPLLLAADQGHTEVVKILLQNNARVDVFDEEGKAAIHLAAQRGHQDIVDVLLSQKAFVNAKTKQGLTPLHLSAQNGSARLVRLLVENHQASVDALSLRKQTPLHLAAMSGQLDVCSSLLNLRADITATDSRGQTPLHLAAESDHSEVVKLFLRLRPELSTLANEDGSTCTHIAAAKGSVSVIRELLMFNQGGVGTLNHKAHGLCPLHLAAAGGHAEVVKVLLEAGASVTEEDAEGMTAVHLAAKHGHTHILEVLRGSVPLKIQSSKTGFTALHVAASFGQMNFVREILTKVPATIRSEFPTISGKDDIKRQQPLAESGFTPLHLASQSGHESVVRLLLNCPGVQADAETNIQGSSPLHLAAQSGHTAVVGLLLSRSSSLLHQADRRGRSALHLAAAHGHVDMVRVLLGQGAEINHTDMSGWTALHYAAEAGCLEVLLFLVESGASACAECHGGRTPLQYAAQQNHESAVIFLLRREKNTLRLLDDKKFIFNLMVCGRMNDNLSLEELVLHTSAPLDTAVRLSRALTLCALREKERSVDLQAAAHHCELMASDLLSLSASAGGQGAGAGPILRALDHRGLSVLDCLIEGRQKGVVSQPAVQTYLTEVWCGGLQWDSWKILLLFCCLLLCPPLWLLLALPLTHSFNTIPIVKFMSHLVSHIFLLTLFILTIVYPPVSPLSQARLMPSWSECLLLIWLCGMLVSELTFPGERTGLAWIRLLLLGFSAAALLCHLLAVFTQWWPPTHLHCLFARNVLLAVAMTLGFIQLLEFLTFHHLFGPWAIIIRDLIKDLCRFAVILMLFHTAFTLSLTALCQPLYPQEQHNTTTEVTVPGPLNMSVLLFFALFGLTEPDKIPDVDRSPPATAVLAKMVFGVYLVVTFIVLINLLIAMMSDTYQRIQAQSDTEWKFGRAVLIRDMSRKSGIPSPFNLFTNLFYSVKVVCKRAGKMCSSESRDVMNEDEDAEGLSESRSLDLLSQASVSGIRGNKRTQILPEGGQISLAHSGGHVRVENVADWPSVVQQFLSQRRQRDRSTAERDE
Chain of Sphingosine 1-phosphate receptor 2 (O95136 whole entry): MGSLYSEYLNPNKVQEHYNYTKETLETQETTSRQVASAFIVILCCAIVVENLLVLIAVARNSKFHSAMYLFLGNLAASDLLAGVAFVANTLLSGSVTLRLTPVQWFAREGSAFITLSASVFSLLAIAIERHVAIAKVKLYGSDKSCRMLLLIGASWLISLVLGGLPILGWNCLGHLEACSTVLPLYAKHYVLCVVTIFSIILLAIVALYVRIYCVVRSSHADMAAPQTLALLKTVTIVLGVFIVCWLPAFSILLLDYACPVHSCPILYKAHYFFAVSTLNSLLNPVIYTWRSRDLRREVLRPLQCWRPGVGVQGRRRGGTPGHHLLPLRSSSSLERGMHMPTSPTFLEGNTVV

**Q.** With `CCN1/C(=C\C=C\C2=[N+](CC)c3ccccc3C2(C)C)C(C)(C)c2ccccc21.[O-][Cl+3]([O-])([O-])[O-]` as the compound, how does the IC50 [1] read?
**A.** Its IC50 is 0.587 µM (active).

**Q.** What about the EC50 [2] of the same compound?
**A.** Its EC50 is 5.96 µM (active).

**Q.** What about the EC50 (BJ [3]) of the same compound?
**A.** Its EC50 is 0.395 µM (inconclusive).

**Q.** And the EC50 (BJ [4])?
**A.** Its EC50 is 0.664 µM (active).

**Q.** What about the EC50 [5] of the same compound?
**A.** The EC50 was < 0.059 µM (active).

**Q.** What about the EC50 [6] of the same compound?
**A.** The EC50 was < 0.059 µM (active).

**Q.** And the EC50 (BJ [7])?
**A.** The EC50 was 2.01 µM (active).

**Q.** What about the EC50 [8] of the same compound?
**A.** Its EC50 is 0.903 µM (active).

**Q.** And the EC50 (Streptococcus)?
**A.** The EC50 was 19.5 µM (active).

**Q.** What about the EC50 (BJ [9]) of the same compound?
**A.** Its EC50 is 0.273 µM (active).

**Q.** And the EC50 [10]?
**A.** The EC50 was 3.74 µM (active).

**Q.** And the AC50 [11]?
**A.** Its AC50 is > 20 µM (inactive).

**Q.** With `CN(CC(=O)ONC(=N)c1cccc([N+](=O)[O-])c1)S(=O)(=O)c1ccccc1` as the compound, how does the EC50 (Mucolipin-3) read?
**A.** The EC50 was 12.4 µM (not active).

**Q.** And the EC50 (Ion channel NompC)?
**A.** The EC50 was > 29.9 µM (not active).

**Q.** What does the source list for `Cc1cccc(N2CCN(C3=C(Cl)C(=O)N(c4ccc(Cl)c(Cl)c4)C3=O)CC2)c1`?
**A.** IC50 (Bcl-2-related protein A1 [12]): > 100 µM (not active); IC50 (Bcl-2-related protein A1 [13]): > 100 µM (not active)

**Q.** For `Clc1ccc(-n2nnc(-c3cnc4ccccc4c3)n2)cn1`, which IC50 (Bcl-2-related protein A1 [12]) is on record?
**A.** Its IC50 is > 100 µM (not active).

**Q.** What about the IC50 (Bcl-2-related protein A1 [13]) of the same compound?
**A.** The IC50 was > 100 µM (not active).

**Q.** With `O=c1oc2ccccc2c(Nc2ccccc2)c1CN1CCCCC1` as the compound, how does the EC50 [14] read?
**A.** Its EC50 is 3.35 µM (active).
